Assay results reported in patent publication US20100298141A1, “SUBSTITUTED PYRIDINE N-OXIDE HERBICIDES” (E. I. DU PONT DE NEMOURS AND COMPANY, priority 2007, published 2010).

Legend:
Test in all cases: Test F preemergence test
Conditions in all cases: scale 0 to 100
goosegrass = assay type: in vivo, Eleusine indica
Summary of the method: (§1)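 Test chemicals were formulated in a non-phytotoxic solvent mixture with surfactant and applied preemergence to planted seeds or postemergence to sugarcane plants. Plants were kept in a greenhouse for 14 to 21 days, then visually evaluated against controls.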

bermudagrass = assay type: in vivo, Cynodon dactylon
Summary of the method: as §1

common ragweed = assay type: in vivo, Ambrosia elation
Summary of the method: as §1

common groundsel = assay type: in vivo, Senecio vulgaris
Summary of the method: as §1

southern sandbur = assay type: in vivo, Cenchrus echinatus
Summary of the method: as §1

Italian ryegrass = assay type: in vivo, Lolium multiflorum
Summary of the method: as §1

kochia = assay type: in vivo, Kochia scoparia
Summary of the method: as §1

Surinam grass = assay type: in vivo, Brachiaria decumbens
Summary of the method: as §1

common purslane = assay type: in vivo, Portulaca oleracea
Summary of the method: as §1

prickly sida = assay type: in vivo, Sida spinosa
Summary of the method: as §1

naked crabgrass = assay type: in vivo, Digitaria nuda
Summary of the method: as §1

johnsongrass = assay type: in vivo, Sorghum halepense
Summary of the method: as §1

large crabgrass = assay type: in vivo, Digitaria sanguinalis
Summary of the method: as §1

purple nutsedge = assay type: in vivo, Cyperus rotundus
Summary of the method: as §1

guineagrass = assay type: in vivo, Panicum maximum
Summary of the method: as §1

pitted morningglory = assay type: in vivo, Ipomoea lacunosa
Summary of the method: as §1

quackgrass = assay type: in vivo, Elytrigia repens
Summary of the method: as §1

Cn1nc(C(F)(F)F)c(C[S+]([O-])c2ccc(F)c[n+]2[O-])c1OC(F)F (stereo not shown) [Compound 58]
40: Kochia plant response rating (kochia; 62 g ai/ha, Preemergence)
80: Ragweed plant response rating (common ragweed; 250 g ai/ha, preemergence) | Plant response rating, Sandbur (southern sandbur; Preemergence, 31 g ai/ha) | Plant response rating, Surinam Grass (Surinam grass; Preemergence, 31 g ai/ha) | Purslane plant response rating (common purslane; 125 g ai/ha, preemergence) | Plant response rating, Johnsongrass (johnsongrass; Preemergence, 31 g ai/ha) | Purple Nutsedge plant response rating (purple nutsedge; 62 g ai/ha, Preemergence)
70: Plant response rating, Goosegrass (goosegrass; Preemergence, 31 g ai/ha) | Plant response rating, Bermudagrass (bermudagrass; Preemergence, 31 g ai/ha) | Morningglory plant response rating (pitted morningglory; 62 g ai/ha, Preemergence) | Quackgrass plant response rating (quackgrass; 62 g ai/ha, Preemergence)
98: Goosegrass plant response rating (goosegrass; 62 g ai/ha, Preemergence) | Goosegrass plant response rating (goosegrass; 125 g ai/ha, preemergence) | Plant response rating, Ryegrass, Italian (Italian ryegrass; Preemergence, 62 g ai/ha) | Plant response rating, Surinam Grass (Surinam grass; Preemergence, 62 g ai/ha) | Prickly Sida plant response rating (prickly sida; 250 g ai/ha, preemergence) | Crabgrass, Large plant response rating (large crabgrass; 62 g ai/ha, Preemergence)
95: Prickly Sida plant response rating (prickly sida; 125 g ai/ha, preemergence) | Purple Nutsedge plant response rating (purple nutsedge; 125 g ai/ha, preemergence) | Purple Nutsedge plant response rating (purple nutsedge; 250 g ai/ha, preemergence) | Quackgrass plant response rating (quackgrass; 125 g ai/ha, preemergence)
65: Prickly Sida plant response rating (prickly sida; 62 g ai/ha, Preemergence)
0: Plant response rating, Purslane (common purslane; Preemergence, 31 g ai/ha) | Plant response rating, Prickly Sida (prickly sida; Preemergence, 31 g ai/ha) | Plant response rating, Purple Nutsedge (purple nutsedge; Preemergence, 31 g ai/ha)
85: Groundsel plant response rating (common groundsel; 125 g ai/ha, preemergence)
75: Plant response rating, Crabgrass, Naked (naked crabgrass; Preemergence, 31 g ai/ha) | Plant response rating, Crabgrass, Large (large crabgrass; Preemergence, 31 g ai/ha)
50: Plant response rating, Ragweed (common ragweed; Preemergence, 31 g ai/ha) | Plant response rating, Ryegrass, Italian (Italian ryegrass; Preemergence, 31 g ai/ha) | Plant response rating, Morningglory (pitted morningglory; Preemergence, 31 g ai/ha)
60: Ragweed plant response rating (common ragweed; 125 g ai/ha, preemergence) | Plant response rating, Ragweed (common ragweed; Preemergence, 62 g ai/ha) | Groundsel plant response rating (common groundsel; 62 g ai/ha, Preemergence)
25: Purslane plant response rating (common purslane; 62 g ai/ha, Preemergence)
20: Plant response rating, Groundsel (common groundsel; Preemergence, 31 g ai/ha) | Plant response rating, Kochia (kochia; Preemergence, 31 g ai/ha)
90: Bermudagrass plant response rating (bermudagrass; 62 g ai/ha, Preemergence) | Johnsongrass plant response rating (johnsongrass; 62 g ai/ha, Preemergence) | Plant response rating, Guineagrass (guineagrass; Preemergence, 31 g ai/ha)
100: Goosegrass plant response rating (goosegrass; 250 g ai/ha, preemergence) | Bermudagrass plant response rating (bermudagrass; 125 g ai/ha, preemergence) | Bermudagrass plant response rating (bermudagrass; 250 g ai/ha, preemergence) | Groundsel plant response rating (common groundsel; 250 g ai/ha, preemergence) | Sandbur plant response rating (southern sandbur; 125 g ai/ha, preemergence) | Sandbur plant response rating (southern sandbur; 250 g ai/ha, preemergence) | Plant response rating, Sandbur (southern sandbur; Preemergence, 62 g ai/ha) | Ryegrass, Italian plant response rating (Italian ryegrass; 125 g ai/ha, preemergence) | Ryegrass, Italian plant response rating (Italian ryegrass; 250 g ai/ha, preemergence) | Kochia plant response rating (kochia; 125 g ai/ha, preemergence) | Kochia plant response rating (kochia; 250 g ai/ha, preemergence) | Surinam Grass plant response rating (Surinam grass; 125 g ai/ha, preemergence) | Surinam Grass plant response rating (Surinam grass; 250 g ai/ha, preemergence) | Purslane plant response rating (common purslane; 250 g ai/ha, preemergence) | Crabgrass, Naked plant response rating (naked crabgrass; 62 g ai/ha, Preemergence) | Crabgrass, Naked plant response rating (naked crabgrass; 125 g ai/ha, preemergence) | Crabgrass, Naked plant response rating (naked crabgrass; 250 g ai/ha, preemergence) | Johnsongrass plant response rating (johnsongrass; 125 g ai/ha, preemergence) | Johnsongrass plant response rating (johnsongrass; 250 g ai/ha, preemergence) | Crabgrass, Large plant response rating (large crabgrass; 125 g ai/ha, preemergence) | Crabgrass, Large plant response rating (large crabgrass; 250 g ai/ha, preemergence) | Guineagrass plant response rating (guineagrass; 62 g ai/ha, Preemergence) | Guineagrass plant response rating (guineagrass; 125 g ai/ha, preemergence) | Guineagrass plant response rating (guineagrass; 250 g ai/ha, preemergence) | Morningglory plant response rating (pitted morningglory; 125 g ai/ha, preemergence) | Morningglory plant response rating (pitted morningglory; 250 g ai/ha, preemergence) | Quackgrass plant response rating (quackgrass; 250 g ai/ha, preemergence)
35: Plant response rating, Quackgrass (quackgrass; Preemergence, 31 g ai/ha)

Cn1nc(C(F)(F)F)c(C[S+]([O-])c2ccc(F)c[n+]2[O-])c1OCC(F)(F)F (stereo not shown) [Compound 67]
40: Plant response rating, Ryegrass, Italian (Italian ryegrass; 16 g ai/ha, preemergence) | Plant response rating, Morningglory (pitted morningglory; 16 g ai/ha, preemergence)
30: Plant response rating, Purple Nutsedge (purple nutsedge; Preemergence, 31 g ai/ha)
20: Plant response rating, Bermudagrass (bermudagrass; 16 g ai/ha, preemergence) | Plant response rating, Ragweed (common ragweed; 16 g ai/ha, preemergence)
0: Plant response rating, Groundsel (common groundsel; 16 g ai/ha, preemergence) | Plant response rating, Kochia (kochia; 16 g ai/ha, preemergence) | Plant response rating, Purslane (common purslane; 16 g ai/ha, preemergence) | Plant response rating, Purslane (common purslane; Preemergence, 31 g ai/ha) | Plant response rating, Prickly Sida (prickly sida; 16 g ai/ha, preemergence) | Plant response rating, Purple Nutsedge (purple nutsedge; 16 g ai/ha, preemergence) | Plant response rating, Guineagrass (guineagrass; 16 g ai/ha, preemergence)
90: Plant response rating, Ragweed (common ragweed; Preemergence, 62 g ai/ha) | Prickly Sida plant response rating (prickly sida; 62 g ai/ha, Preemergence) | Morningglory plant response rating (pitted morningglory; 125 g ai/ha, preemergence)
98: Bermudagrass plant response rating (bermudagrass; 62 g ai/ha, Preemergence) | Ragweed plant response rating (common ragweed; 125 g ai/ha, preemergence) | Groundsel plant response rating (common groundsel; 125 g ai/ha, preemergence) | Prickly Sida plant response rating (prickly sida; 125 g ai/ha, preemergence) | Crabgrass, Large plant response rating (large crabgrass; 62 g ai/ha, Preemergence) | Plant response rating, Crabgrass, Large (large crabgrass; Preemergence, 31 g ai/ha) | Quackgrass plant response rating (quackgrass; 125 g ai/ha, preemergence)
80: Goosegrass plant response rating (goosegrass; 62 g ai/ha, Preemergence) | Groundsel plant response rating (common groundsel; 62 g ai/ha, Preemergence)
25: Plant response rating, Groundsel (common groundsel; Preemergence, 31 g ai/ha)
85: Quackgrass plant response rating (quackgrass; 62 g ai/ha, Preemergence)
100: Goosegrass plant response rating (goosegrass; 125 g ai/ha, preemergence) | Bermudagrass plant response rating (bermudagrass; 125 g ai/ha, preemergence) | Sandbur plant response rating (southern sandbur; 125 g ai/ha, preemergence) | Plant response rating, Sandbur (southern sandbur; Preemergence, 62 g ai/ha) | Plant response rating, Sandbur (southern sandbur; Preemergence, 31 g ai/ha) | Ryegrass, Italian plant response rating (Italian ryegrass; 125 g ai/ha, preemergence) | Plant response rating, Ryegrass, Italian (Italian ryegrass; Preemergence, 62 g ai/ha) | Kochia plant response rating (kochia; 62 g ai/ha, Preemergence) | Kochia plant response rating (kochia; 125 g ai/ha, preemergence) | Surinam Grass plant response rating (Surinam grass; 125 g ai/ha, preemergence) | Plant response rating, Surinam Grass (Surinam grass; Preemergence, 62 g ai/ha) | Purslane plant response rating (common purslane; 125 g ai/ha, preemergence) | Crabgrass, Naked plant response rating (naked crabgrass; 62 g ai/ha, Preemergence) | Crabgrass, Naked plant response rating (naked crabgrass; 125 g ai/ha, preemergence) | Crabgrass, Large plant response rating (large crabgrass; 125 g ai/ha, preemergence) | Guineagrass plant response rating (guineagrass; 62 g ai/ha, Preemergence) | Guineagrass plant response rating (guineagrass; 125 g ai/ha, preemergence)
70: Plant response rating, Goosegrass (goosegrass; Preemergence, 31 g ai/ha) | Plant response rating, Crabgrass, Naked (naked crabgrass; Preemergence, 31 g ai/ha) | Morningglory plant response rating (pitted morningglory; 62 g ai/ha, Preemergence) | Plant response rating, Morningglory (pitted morningglory; Preemergence, 31 g ai/ha)
50: Plant response rating, Goosegrass (goosegrass; 16 g ai/ha, preemergence)
35: Plant response rating, Johnsongrass (johnsongrass; 16 g ai/ha, preemergence)
95: Plant response rating, Surinam Grass (Surinam grass; Preemergence, 31 g ai/ha) | Purslane plant response rating (common purslane; 62 g ai/ha, Preemergence) | Johnsongrass plant response rating (johnsongrass; 125 g ai/ha, preemergence) | Purple Nutsedge plant response rating (purple nutsedge; 125 g ai/ha, preemergence) | Plant response rating, Guineagrass (guineagrass; Preemergence, 31 g ai/ha)
65: Plant response rating, Ragweed (common ragweed; Preemergence, 31 g ai/ha) | Plant response rating, Prickly Sida (prickly sida; Preemergence, 31 g ai/ha) | Plant response rating, Crabgrass, Large (large crabgrass; 16 g ai/ha, preemergence)
60: Plant response rating, Sandbur (southern sandbur; 16 g ai/ha, preemergence) | Plant response rating, Kochia (kochia; Preemergence, 31 g ai/ha) | Plant response rating, Crabgrass, Naked (naked crabgrass; 16 g ai/ha, preemergence) | Purple Nutsedge plant response rating (purple nutsedge; 62 g ai/ha, Preemergence) | Plant response rating, Quackgrass (quackgrass; 16 g ai/ha, preemergence)
75: Plant response rating, Bermudagrass (bermudagrass; Preemergence, 31 g ai/ha) | Plant response rating, Ryegrass, Italian (Italian ryegrass; Preemergence, 31 g ai/ha) | Plant response rating, Surinam Grass (Surinam grass; 16 g ai/ha, preemergence) | Johnsongrass plant response rating (johnsongrass; 62 g ai/ha, Preemergence) | Plant response rating, Johnsongrass (johnsongrass; Preemergence, 31 g ai/ha) | Plant response rating, Quackgrass (quackgrass; Preemergence, 31 g ai/ha)
